From publication PMC5988692, “AZ304, a novel dual BRAF inhibitor, exerts anti-tumour effects in colorectal cancer independently of BRAF genetic status” (British Journal of Cancer, 2018)

Tests used:
Assay in all cases: Cell proliferation assay (cell panel, MTS)
Type in all cases: cell-based
SK-MEL-2 = details: Homo sapiens, 72 h; SK-MEL-2, Melanoma, BRAF WT, NRAS MT, 3 days
Description: (§1) The proliferation assays against a cell panel were performed as described in ref.[18] Briefly, the cells were treated with DMSO or multiple concentrations of AZ304 for 3 days. The cell growth was determined using the CellTiter 96 Aqueous One Cell Proliferation Assay (Promega, Madison, WI). […] The assays were done in triplicate across different plates.
(§2) Anti-proliferative activity of AZ304 against a panel of cell lines with different BRAF and RAS genetic status. […] Cell growth was determined by MTS assay.

NIH: OVCAR-3 = details: Homo sapiens, 72 h; NIH: OVCAR-3, Ovary, BRAF WT, RAS WT, 3 days
Description: as §1, §2

MC-F7/mdr+ = details: Homo sapiens, MCF7, 72 h, Breast, BRAF WT, RAS WT, 3 days
Description: as §1, §2

SK-MEL-3 = details: Homo sapiens, SK-MEL3, 72 h; SK-MEL-3, Melanoma, BRAF V600E, RAS WT, 3 days
Description: as §1, §2

MC-F7 = details: Homo sapiens, MCF7, 72 h; MC-F7, Breast, BRAF WT, RAS WT, 3 days
Description: as §1, §2

IM-9 = details: Homo sapiens, 72 h; IM-9, Lymphoma, BRAF WT, NRAS MT, 3 days
Description: as §1, §2

JVM-3 = details: Homo sapiens, 72 h; JVM-3, Lymphoma, BRAF K601N, RAS WT, 3 days
Description: as §1, §2

Calu-6 = details: Homo sapiens, 72 h; Calu-6, Lung, BRAF WT, KRAS MT, 3 days
Description: as §1, §2

HCT-15 = details: Homo sapiens, 72 h; HCT-15, Colon, BRAF WT, KRAS MT, 3 days
Description: as §1, §2

MDA-MB-231 = details: Homo sapiens, 72 h; MDA-MB-231, Breast, BRAF G464V HT, KRAS MT, 3 days
Description: as §1, §2

DU145 = details: Homo sapiens, DU-145, 72 h; DU145, Prostate, BRAF WT, RAS WT, 3 days
Description: as §1, §2

SK-OV3 = details: Homo sapiens, SK-OV-3, 72 h; SK-OV3, Ovary, BRAF WT, RAS WT, 3 days
Description: as §1, §2

SK-MEL-24 = details: Homo sapiens, 72 h; SK-MEL-24, Melanoma, BRAF V600E, RAS WT, 3 days
Description: as §1, §2

HT29 = details: Homo sapiens, HT-29, 72 h; HT29, Colon, BRAF V600E HT, RAS WT, 3 days
Description: as §1, §2

NCI-H23 = details: Homo sapiens, 72 h; NCI-H23, Lung, BRAF WT, KRAS MT, 3 days
Description: as §1, §2

SK-MEL-31 = details: Homo sapiens, 72 h; SK-MEL-31, Melanoma, BRAF WT, RAS WT, 3 days
Description: as §1, §2

HCT116 = details: Homo sapiens, HCT-116, 72 h; HCT116, Colon, BRAF WT, KRAS MT, 3 days
Description: as §1, §2

RPMI-8226 = details: Homo sapiens, RPMI-8226, 72 h; BRAF WT, KRAS MT, 3 days
Description: as §1, §2

A375 = details: Homo sapiens, A-375, 72 h; A375, Melanoma, BRAF V600E HM, RAS WT, 3 days
Description: as §1, §2

NCI-H460 = details: Homo sapiens, 72 h; NCI-H460, Lung, BRAF WT, KRAS MT, 3 days
Description: as §1, §2

LNCaP clone FGC = details: Homo sapiens, 72 h, Prostate, BRAF WT, RAS WT, 3 days
Description: as §1, §2

MIAPaCa-2 = details: Homo sapiens, MIA PaCa-2, 72 h; MIAPaCa-2, Pancreas, BRAF WT, KRAS MT, 3 days
Description: as §1, §2

MDA-MB-468 = details: Homo sapiens, 72 h; MDA-MB-468, Breast, BRAF WT, RAS WT, 3 days
Description: as §1, §2

U937 = details: Homo sapiens, U-937, 72 h; U937, Lymphoma, BRAF WT, RAS WT, 3 days
Description: as §1, §2

SK-MEL-28 = details: Homo sapiens, 72 h; SK-MEL-28, Melanoma, BRAF V600E, RAS WT, 3 days
Description: as §1, §2

A2058 = details: Homo sapiens, 72 h; A2058, Melanoma, BRAF V600E HT, RAS WT, 3 days
Description: as §1, §2

NCI-H1755 = details: Homo sapiens, 72 h; NCI-H1755, Lung, BRAF A468, RAS WT, 3 days
Description: as §1, §2

SK-BR-3 = details: Homo sapiens, 72 h; SK-BR-3, Breast, BRAF WT, RAS WT, 3 days
Description: as §1, §2

A375pgp = details: Homo sapiens, 72 h, Melanoma, BRAF V600E HM, RAS WT, 3 days
Description: as §1, §2

Melma-3M = details: Homo sapiens, 72 h, Melanoma, BRAF V600E, RAS WT, 3 days
Description: as §1, §2

## COc1ccc2c(Nc3cc(NC(=O)c4cccc(C(C)(C)C#N)c4)ccc3C)ncnc2c1 [AZ304]
SK-MEL-2
  GI50: 3.91 µM
NIH: OVCAR-3
  GI50: 11 µM
MC-F7/mdr+
  GI50: 7.63 µM
SK-MEL-3
  GI50: 0.53 µM
MC-F7
  GI50: 10.1 µM
IM-9
  GI50: 0.9 µM
JVM-3
  GI50: 1.68 µM
Calu-6
  GI50: 5.51 µM
HCT-15
  GI50: 11.5 µM
MDA-MB-231
  GI50: 1.99 µM
DU145
  GI50: 11.7 µM
SK-OV3
  GI50: 6.18 µM
SK-MEL-24
  GI50: 0.08 µM
HT29
  GI50: 0.51 µM
NCI-H23
  GI50: 3.99 µM
SK-MEL-31
  GI50: 0.43 µM
HCT116
  GI50: 2.74 µM
RPMI-8226
  GI50: 5.37 µM
A375
  GI50: 0.23 µM
NCI-H460
  GI50: 8.56 µM
LNCaP clone FGC
  GI50: 3.32 µM
MIAPaCa-2
  GI50: 1.16 µM
MDA-MB-468
  GI50: 8.83 µM
U937
  GI50: 9.37 µM
SK-MEL-28
  GI50: 0.5 µM
A2058
  GI50: 3.82 µM
NCI-H1755
  GI50: 7.72 µM
SK-BR-3
  GI50: 11.6 µM
A375pgp
  GI50: 0.43 µM
Melma-3M
  GI50: 0.1 µM
